Measured values as given in patent publication EP4635500A1, “THERAPEUTIC AGENT FOR BACTERIAL INFECTION” (Sumitomo Pharma Co., Ltd., priority 2022, dated 2024).
Converted amounts (≈) assume the structure as drawn. Read-outs that look alike come from different tables or passages of the source.

Test system: P. aeruginosa
Assay: MIC, broth microdilution, CDC/FDA Antibiotic Resistance Isolate Bank (Example 7, Tables 10, 15)
Format: cell-based
Settings: for MIC: Pseudomonas aeruginosa, read-out: MIC
[1] = 26 metallo-carbapenemase-producing P. aeruginosa strains, β-lactamase inhibitor µg/mL in parentheses
[2] = 96 strains of P. aeruginosa, β-lactamase inhibitor µg/mL in parentheses

O=C(O)c1cn(C2CC2)c2cc(N3CCNCC3)c(F)cc2c1=O [Ciprofloxacin, ciprofloxacin]
MIC against 26 metallo-carbapenemase-producing strains MIC50 [1]: 32 µg(mL)
MIC against 26 metallo-carbapenemase-producing strains MIC90 [1]: 64 µg(mL)
MIC against 96 strains of P. aeruginosa MIC50 [2]: 16 µg(mL)
MIC against 96 strains of P. aeruginosa MIC90 [2]: 64 µg(mL)
MIC (P. aeruginosa KUB No. 5602, AR Bank # 105): > 64 µg/mL
MIC (P. aeruginosa KUB No. 5665, AR Bank # 232): 2 µg/mL (≈ 6.04 µM)
MIC (P. aeruginosa KUB No. 5666, AR Bank # 23): 0.5 µg/mL (≈ 1.51 µM)
MIC (P. aeruginosa KUB No. 5667, AR Bank # 234): 2 µg/mL (≈ 6.04 µM)
MIC (P. aeruginosa KUB No. 5669, AR Bank # 236): 4 µg/mL (≈ 12.1 µM)
MIC (P. aeruginosa KUB No. 5675, AR Bank # 242): 8 µg/mL (≈ 24.1 µM)
MIC (P. aeruginosa KUB No. 5676, AR Bank # 243): 8 µg/mL (≈ 24.1 µM)
MIC (P. aeruginosa KUB No. 5705, AR Bank # 272): 8 µg/mL (≈ 24.1 µM)
MIC (P. aeruginosa KUB No. 5747, AR Bank # 351): 2 µg/mL (≈ 6.04 µM)
MIC (P. aeruginosa KUB No. 5748, AR Bank # 352): 4 µg/mL (≈ 12.1 µM)
MIC (P. aeruginosa KUB No. 5750, AR Bank # 354): 4 µg/mL (≈ 12.1 µM)
MIC (P. aeruginosa KUB No. 5754, AR Bank # 358): 4 µg/mL (≈ 12.1 µM)
MIC (P. aeruginosa KUB No. 5755, AR Bank # 359): 4 µg/mL (≈ 12.1 µM)
MIC (P. aeruginosa KUB No. 5798, AR Bank # 455): 1 µg/mL (≈ 3.02 µM)
MIC (P. aeruginosa KUB No. 5801, AR Bank # 458): 0.5 µg/mL (≈ 1.51 µM)
MIC (P. aeruginosa KUB No. 5802, AR Bank # 459): 4 µg/mL (≈ 12.1 µM)
MIC (P. aeruginosa KUB No. 5804, AR Bank # 862): 1 µg/mL (≈ 3.02 µM)
MIC (P. aeruginosa KUB No. 5806, AR Bank # 864): > 64 µg/mL
MIC (P. aeruginosa KUB No. 5813, AR Bank # 508): 0.002 µg/mL (≈ 0.00604 µM)
MIC (P. aeruginosa KUB No. 5815, AR Bank # 510): 0.004 µg/mL (≈ 0.0121 µM)
MIC (P. aeruginosa KUB No. 5817, AR Bank # 512): 0.001 µg/mL (≈ 0.00302 µM)
MIC (P. aeruginosa KUB No. 5820, AR Bank # 515): > 0.064 µg/mL
